System: dendritic cells
Test: Transwell overlaid with type 1 collagen or HMVEC-dLy monolayer, chemotaxis to CCL21 with and without Sema3A, after myosin II or Rho kinase inhibition
Type: cell-based, mouse
Method: An uncoated Transwell (pore diameter 5.0 μm; Corning) was placed in a 24-well plate containing CCL21 or CSCL12 in 0.6 ml of RPM1 containing 0.1% BSA. 1×10^5 dendritic cells in 0.1 ml of solution were added to the upper well of the Transwell, and incubated for 3 hours at 37° C. The cells in the […] chamber were ablated for 5 minutes with 5 mM PBS-EDTA, and counted by Guava. Fibronectin ([…]), type 1 collagen (3.0 mg/ml) or lymphatic endothelial cells were laid over the membrane of the top chamber for purposes of in vitro migration assay. In brief, 2×10^4 SVEC4-10 or HMVEC-dLy cells were seeded on the top or bottom surface of a Transwell insert coated with 2 μg/ml of fibronectin. […]
BMDC cells that had been treated for 30 minutes at 37° C. with 50 μM of blebbistatin or 30 μM of Y-27632 were applied to the upper chamber of a Transwell (pore diameter: 5 μm) overlaid with 3 mg/ml of type 1 collagen (left panel) and an HMVEC-dLy monolayer (right panel), and chemotaxis in response to CCL21 was measured in the […] chamber with and without Sema3A. The overall difference between groups was evaluated by one-way ANOVA. […]
A Transwell test was performed by the following methods. […] The cells in the lower chamber were ablated for 5 minutes by treatment with 5 mM of PBS-EDTA, and counted by Guava ViaCount assay on a Guava PCA system. […]

SMILES: Cc1ccc2c(c1)C(=O)C1(O)CCN(c3ccccc3)C1=N2 (centres unmarked) [blebbistatin]
- effect of Sema3A on dendritic cell trafficking after inhibitor treatment (DC cells treated 30 minutes at 37° C. with 50 μM blebbistatin): disappeared

SMILES: C[C@@H](N)[C@H]1CC[C@H](C(=O)Nc2ccncc2)CC1 [Y-27632]
- effect of Sema3A on dendritic cell trafficking after inhibitor treatment (DC cells treated 30 minutes at 37° C. with 30 μM Y-27632): disappeared

Source: patent publication US12474337B2, “Therapeutic agent for autoimmune diseases or allergy, and method for screening for the therapeutic agent” (OSAKA UNIVERSITY, priority 2009, dated 2025)
